Laboratory results published in patent US20220323406A1, “METHODS AND COMPOSITIONS FOR DIFFERENTIATING STEM CELLS” (Massachusetts Institute of Technology, priority 2019, published 2022).
Structures can show the parent of a compound that is named as a salt.

How the values were obtained:
[1] = test system: ENR+CD organoids (ISC to Paneth cell differentiation); experiment: Primary screen: CCh-stimulated lysozyme secretion LYZ.S, 2.5-D 384-well ENR+CD organoid differentiation; type: cell-based, mouse; conditions: primary screen
Source text: (§1) High-throughput screening.

[2] = test system: ENR+CD organoids (ISC to Paneth cell differentiation); experiment: Primary screen: basal (non-stimulated) lysozyme secretion LYZ.NS, 2.5-D 384-well ENR+CD organoid differentiation; type: cell-based, mouse
Source text: as §1

[3] = test system: ENR+CD organoids; experiment: Primary screen: ATP (CellTiter-Glo 3D, CTG) cell number/viability, 2.5-D 384-well ENR+CD organoids;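 further: compounds given at plating and again on day 3 over a 6-day differentiation from ENR+CV stem-cell-enriched precursors, ATP measured on day 6, plate median as control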
[4] = dose 0.08 uM, FC relative to plate median
[5] = dose 0.40 uM, FC relative to plate median
[6] = dose 2.00 uM, FC relative to plate median
[7] = dose 10.00 uM, FC relative to plate median
[8] = primary screen, dose 0.08 uM, FC relative to plate median
[9] = primary screen, dose 0.08 uM, standard z score
[10] = primary screen, dose 0.40 uM, FC relative to plate median
[11] = primary screen, dose 0.40 uM, standard z score
[12] = primary screen, dose 2.00 uM, FC relative to plate median
[13] = primary screen, dose 2.00 uM, standard z score
[14] = primary screen, dose 10.00 uM, FC relative to plate median
[15] = primary screen, dose 10.00 uM, standard z score
[16] = primary screen; dose 0.08 uM; FC vs plate median
[17] = primary screen; dose 0.40 uM; FC vs plate median
[18] = primary screen; dose 2.00 uM; FC vs plate median
[19] = primary screen; dose 10.00 uM; FC vs plate median
[20] = primary screen, standard z score, dose 0.08 uM
[21] = primary screen, standard z score, dose 0.40 uM
[22] = primary screen, standard z score, dose 2.00 uM
[23] = primary screen, standard z score, dose 10.00 uM

Row | Compound | Z.LYZ.NS (standard z score) ([2]; primary screen, dose 0.08 uM) | Z.LYZ.NS (standard z score) ([2]; primary screen, dose 0.40 uM) | Z.LYZ.NS (standard z score) ([2]; primary screen, dose 2.00 uM) | Z.LYZ.NS (standard z score) ([2]; primary screen, dose 10.00 uM) | Z.CTG (standard z score) ([3]; primary screen, dose 0.08 uM) | Z.CTG (standard z score) ([3]; primary screen, dose 0.40 uM) | Z.CTG (standard z score) ([3]; primary screen, dose 2.00 uM) | Z.CTG (standard z score) ([3]; primary screen, dose 10.00 uM) | Dose.FC.LYZ.S ([1]; dose 0.08 uM) | Dose.FC.LYZ.S ([1]; dose 0.40 uM) | Dose.FC.LYZ.S ([1]; dose 2.00 uM) | Dose.FC.LYZ.S ([1]; dose 10.00 uM) | Dose.FC.LYZ.NS ([2]; primary screen, dose 0.08 uM) | Dose.FC.LYZ.NS ([2]; primary screen, dose 0.40 uM) | Dose.FC.LYZ.NS ([2]; primary screen, dose 2.00 uM) | Dose.FC.LYZ.NS ([2]; primary screen, dose 10.00 uM) | Dose.FC.CTG ([3]; primary screen, dose 0.08 uM) | Dose.FC.CTG ([3]; primary screen, dose 0.40 uM) | Dose.FC.CTG ([3]; primary screen, dose 2.00 uM) | Dose.FC.CTG ([3]; primary screen, dose 10.00 uM) | other results
1 | CNC(=O)c1ccccc1Nc1nc(Nc2ccc(N3CCOCC3)cc2OC)ncc1Cl [TAE226 (NVP-TAE226)] |  |  |  |  |  |  |  |  |  |  |  |  |  |  |  |  |  |  |  |  | Dose.FC.LYZ.S [1, 4]: −0.333 log2 fold change; Dose.FC.LYZ.S [1, 5]: −0.376 log2 fold change; Dose.FC.LYZ.S [1, 6]: −0.400 log2 fold change; Dose.FC.LYZ.S [1, 7]: −0.426 log2 fold change; Dose.FC.LYZ.NS [2, 8]: −0.256 log2 fold change; Z.LYZ.NS [2, 9]: −2.226; Dose.FC.LYZ.NS [2, 10]: −0.304 log2 fold change; Z.LYZ.NS [2, 11]: −2.650; Dose.FC.LYZ.NS [2, 12]: −0.323 log2 fold change; Z.LYZ.NS [2, 13]: −2.813; Dose.FC.LYZ.NS [2, 14]: −0.292 log2 fold change; Z.LYZ.NS [2, 15]: −2.545; Dose.FC.CTG [3, 8]: −0.472 log2 fold change; Z.CTG [3, 9]: −1.127; Dose.FC.CTG [3, 10]: −1.126 log2 fold change; Z.CTG [3, 11]: −2.689; Dose.FC.CTG [3, 12]: −1.284 log2 fold change; Z.CTG [3, 13]: −3.068; Dose.FC.CTG [3, 14]: −0.989 log2 fold change; Z.CTG [3, 15]: −2.363
2 | CCOC(=O)CCNc1cc(N2CCc3ccccc3CC2)nc(-c2ccccn2)n1.Cl [GSK J4 HCl] | 0.508 | 0.433 | 0.153 | −0.006 | 0.297 | 0.237 | 0.006 | 0.558 |  |  |  |  |  |  |  |  |  |  |  |  | Dose.FC.LYZ.S (log2 fold change) ([1]; dose 0.08 uM): 0.086; Dose.FC.LYZ.S (log2 fold change) ([1]; dose 0.40 uM): 0.109; Dose.FC.LYZ.S (log2 fold change) ([1]; dose 2.00 uM): 0.041; Dose.FC.LYZ.S (log2 fold change) ([1]; dose 10.00 uM): −0.002; Dose.FC.LYZ.NS (log2 fold change) ([2]; primary screen, dose 0.08 uM): 0.058; Dose.FC.LYZ.NS (log2 fold change) ([2]; primary screen, dose 0.40 uM): 0.050; Dose.FC.LYZ.NS (log2 fold change) ([2]; primary screen, dose 2.00 uM): 0.018; Dose.FC.LYZ.NS (log2 fold change) ([2]; primary screen, dose 10.00 uM): −0.001; Dose.FC.CTG (log2 fold change) ([3]; primary screen, dose 0.08 uM): 0.124; Dose.FC.CTG (log2 fold change) ([3]; primary screen, dose 0.40 uM): 0.099; Dose.FC.CTG (log2 fold change) ([3]; primary screen, dose 2.00 uM): 0.002; Dose.FC.CTG (log2 fold change) ([3]; primary screen, dose 10.00 uM): 0.233
3 | CN(C)CCCCC(=O)Nc1ccc(NC(=S)NC(=O)c2ccc(C(C)(C)C)cc2)cc1 [Tenovin-6] | 1.050 | −0.463 | −1.686 | −1.671 | 0.165 | −1.209 | −2.654 | −3.414 | 0.028 log2 fold change | −0.109 log2 fold change | −0.328 log2 fold change | −0.344 log2 fold change | 0.121 log2 fold change | −0.053 log2 fold change | −0.194 log2 fold change | −0.192 log2 fold change | 0.069 log2 fold change | −0.506 log2 fold change | −1.111 log2 fold change | −1.429 log2 fold change | 
4 | Cn1c(N2CCCCS2(=O)=O)nc(C(=O)NCc2ccc(F)cc2)c(O)c1=O [BMS-707035] | 0.933 | 1.174 | 0.955 | 0.613 |  |  |  |  | 0.134 log2 fold change | 0.182 log2 fold change | 0.048 log2 fold change | 0.050 log2 fold change | 0.107 log2 fold change | 0.135 log2 fold change | 0.110 log2 fold change | 0.070 log2 fold change | 0.318 log2 fold change | 0.238 log2 fold change | 0.279 log2 fold change | 0.138 log2 fold change | 
5 | VU 0357121 | 0.686 | −0.090 | 0.261 | −0.237 | 0.438 | 0.352 | 0.029 | −0.141 | 0.152 log2 fold change | 0.034 log2 fold change | 0.007 log2 fold change | −0.034 log2 fold change | 0.079 log2 fold change | −0.010 log2 fold change | 0.030 log2 fold change | −0.027 log2 fold change | 0.183 log2 fold change | 0.148 log2 fold change | 0.012 log2 fold change | −0.059 log2 fold change | 
6 | O=C(O)c1cccc(-c2noc(-c3ccccc3F)n2)c1 [Ataluren (PTC124)] | 0.253 | 0.362 | 1.140 | 0.077 | 0.639 | −0.813 | −0.100 | 0.013 | 0.051 log2 fold change | 0.034 log2 fold change | 0.058 log2 fold change | 0.005 log2 fold change | 0.029 log2 fold change | 0.042 log2 fold change | 0.131 log2 fold change | 0.009 log2 fold change | 0.267 log2 fold change | −0.340 log2 fold change | −0.042 log2 fold change | 0.006 log2 fold change | 
7 | C=CCc1cccc(/C=N/NC(=O)CN2CCN(Cc3ccccc3)CC2)c1O [PAC-1] |  |  |  |  |  |  |  |  |  |  |  |  |  |  |  |  |  |  |  |  | Dose.FC.LYZ.S ([1]; dose 0.08 uM, FC vs plate median): 0.128 log2 fold change; Dose.FC.LYZ.S ([1]; dose 0.40 uM, FC vs plate median): 0.059 log2 fold change; Dose.FC.LYZ.S ([1]; dose 2.00 uM, FC vs plate median): −0.006 log2 fold change; Dose.FC.LYZ.S ([1]; dose 10.00 uM, FC vs plate median): 0.092 log2 fold change; Z.LYZ.NS [2, 9]: 1.365; Z.LYZ.NS [2, 11]: 0.457; Z.LYZ.NS [2, 13]: 1.094; Z.LYZ.NS [2, 15]: 0.596; Dose.FC.LYZ.NS [2, 16]: 0.157 log2 fold change; Dose.FC.LYZ.NS [2, 17]: 0.053 log2 fold change; Dose.FC.LYZ.NS [2, 18]: 0.126 log2 fold change; Dose.FC.LYZ.NS [2, 19]: 0.068 log2 fold change; Z.CTG [3, 9]: 0.228; Z.CTG [3, 11]: 0.270; Z.CTG [3, 13]: −0.576; Z.CTG [3, 15]: 0.004; Dose.FC.CTG [3, 16]: 0.095 log2 fold change; Dose.FC.CTG [3, 17]: 0.113 log2 fold change; Dose.FC.CTG [3, 18]: −0.241 log2 fold change; Dose.FC.CTG [3, 19]: 0.002 log2 fold change
8 | Cl.Cl.O=S(=O)(NCCNC/C=C/c1ccc(Br)cc1)c1cccc2cnccc12 [H 89 2HCl] | 1.223 | 0.695 | 0.747 | 1.151 | 0.836 | 0.950 | 1.005 | 0.919 |  |  |  |  |  |  |  |  |  |  |  |  | Dose.FC.LYZ.S (log2 fold change) ([1]; dose 0.08 uM): 0.118; Dose.FC.LYZ.S (log2 fold change) ([1]; dose 0.40 uM): 0.148; Dose.FC.LYZ.S (log2 fold change) ([1]; dose 2.00 uM): 0.087; Dose.FC.LYZ.S (log2 fold change) ([1]; dose 10.00 uM): 0.000; Dose.FC.LYZ.NS (log2 fold change) ([2]; primary screen, dose 0.08 uM): 0.140; Dose.FC.LYZ.NS (log2 fold change) ([2]; primary screen, dose 0.40 uM): 0.080; Dose.FC.LYZ.NS (log2 fold change) ([2]; primary screen, dose 2.00 uM): 0.086; Dose.FC.LYZ.NS (log2 fold change) ([2]; primary screen, dose 10.00 uM): 0.132; Dose.FC.CTG (log2 fold change) ([3]; primary screen, dose 0.08 uM): 0.350; Dose.FC.CTG (log2 fold change) ([3]; primary screen, dose 0.40 uM): 0.398; Dose.FC.CTG (log2 fold change) ([3]; primary screen, dose 2.00 uM): 0.421; Dose.FC.CTG (log2 fold change) ([3]; primary screen, dose 10.00 uM): 0.385
9 | Cc1ccc(-n2nccn2)c(C(=O)N2CCN(c3nc4cc(Cl)ccc4o3)CC[C@H]2C)c1 [Suvorexant (MK-4305)] |  |  |  |  |  |  |  |  |  |  |  |  |  |  |  |  |  |  |  |  | Dose.FC.LYZ.S [1, 4]: 0.186 log2 fold change; Dose.FC.LYZ.S [1, 5]: 0.142 log2 fold change; Dose.FC.LYZ.S [1, 6]: 0.101 log2 fold change; Dose.FC.LYZ.S [1, 7]: 0.131 log2 fold change; Dose.FC.LYZ.NS [2, 8]: 0.204 log2 fold change; Z.LYZ.NS [2, 9]: 1.775; Dose.FC.LYZ.NS [2, 10]: 0.123 log2 fold change; Z.LYZ.NS [2, 11]: 1.073; Dose.FC.LYZ.NS [2, 12]: 0.123 log2 fold change; Z.LYZ.NS [2, 13]: 1.073; Dose.FC.LYZ.NS [2, 14]: 0.077 log2 fold change; Z.LYZ.NS [2, 15]: 0.670; Dose.FC.CTG [3, 8]: 0.192 log2 fold change; Z.CTG [3, 9]: 0.458; Dose.FC.CTG [3, 10]: 0.255 log2 fold change; Z.CTG [3, 11]: 0.609; Dose.FC.CTG [3, 12]: 0.375 log2 fold change; Z.CTG [3, 13]: 0.895; Dose.FC.CTG [3, 14]: 0.250 log2 fold change; Z.CTG [3, 15]: 0.597
10 | CN1CCC[C@@H]1CCO[C@](C)(c1ccccc1)c1ccc(Cl)cc1 [Clemastine Fumarate] |  |  |  |  |  |  |  |  | 0.096 log2 fold change | −0.066 log2 fold change | −0.048 log2 fold change | 0.001 log2 fold change | 0.024 log2 fold change | −0.026 log2 fold change | −0.014 log2 fold change | −0.061 log2 fold change | 0.242 log2 fold change | 0.036 log2 fold change | 0.024 log2 fold change | −0.424 log2 fold change | Z.LYZ.NS [2, 20]: 0.210; Z.LYZ.NS [2, 21]: −0.227; Z.LYZ.NS [2, 22]: −0.124; Z.LYZ.NS [2, 23]: −0.534; Z.CTG [3, 20]: 0.578; Z.CTG [3, 21]: 0.086; Z.CTG [3, 22]: 0.058; Z.CTG [3, 23]: −1.013
